Data as given in paper PMC6001238, “Iterative Chemical Engineering of Vancomycin Leads to Novel Vancomycin Analogs With a High in Vitro Therapeutic Index” (Frontiers in Microbiology, 2018).
Converted amounts (≈) assume the structure as drawn. Read-outs that look alike come from different tables or passages of the source.

How the values were obtained:
[1] = tested on: VE 152 (VanB); experiment: MIC, VanB-type VRE strain VE 152; format: cell-based, Enterococcus; details: Enterococcus; VE 152, VanB; read-out: MIC
Method: (§1) The minimum inhibitory concentration (MIC) was determined using the broth microdilution method according to the antimicrobial susceptibility testing standards of the clinical and laboratory standards institute ([Clinical and Laboratory Standards Institute [CLSI], 2012]). Ultrapure water and non-inoculated broth were used as controls. In one case, a final concentration of 10 μM vancomycin was included with the vancomycin analog or control antibiotic.

[2] = tested on: VE 148 (VanB); experiment: MIC, VanB-type VRE strain VE 148; format: cell-based, Enterococcus; details: Enterococcus; VE 148, VanB; read-out: MIC
Method: as §1

[3] = tested on: S. aureus VRSA; experiment: MIC, broth microdilution, vancomycin-resistant S. aureus (VRSA); format: cell-based, Staphylococcus aureus
In short: (§2)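 Broth microdilution per CLSI; controls = ultrapure water, non-inoculated broth. One set: + vancomycin 10 μM final alongside test analogue/control drug.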

[4] = tested on: L1210, CEM and HeLa cell lines; experiment: Cytostatic activity, average or summary over L1210, CEM and HeLa; format: cell-based
In short: (§3)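 Suspensions (300,000–500,000 cells/mL) combined with equal volumes of diluted compound; 37°C; L1210 2 d / CEM 3 d / HeLa 4 d; counted by Coulter counter; IC50 vs untreated wells.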

[5] = tested on: MRSA KS1; experiment: MIC, broth microdilution, MRSA KS1; format: cell-based, Staphylococcus aureus
In short: as §2

[6] = tested on: VE 82 (VanC1); experiment: MIC, VanC1-type VRE strain VE 82; format: cell-based, Enterococcus gallinarum; details: Enterococcus gallinarum; VE 82, VanC1; read-out: MIC
Method: as §1

[7] = tested on: 33 clinical VRE isolates; experiment: MIC against a set of 33 clinical VRE isolates (range, MIC50, TI); format: cell-based, Enterococcus faecalis
Method: as §1

[8] = tested on: VE 150 (VanB); experiment: MIC, VanB-type VRE strain VE 150; format: cell-based, Enterococcus; details: Enterococcus; VE 150, VanB; read-out: MIC
Method: as §1

[9] = tested on: human cervix carcinoma (HeLa) cells; experiment: Cytostatic activity, HeLa cell proliferation; format: cell-based; details: Homo sapiens, HeLa, 96 h; mean ± SD of three experiments; highest concentration tested 250 µM; 4 days; read-out: Toxicity (IC50) HeLa
In short: as §3

[10] = tested on: VE 157 (VanB); experiment: MIC, VanB-type VRE strain VE 157; format: cell-based, Enterococcus; details: Enterococcus; VE 157, VanB; read-out: MIC
Method: as §1

[11] = tested on: MRSA KS89; experiment: MIC, broth microdilution, MRSA KS89; format: cell-based, Staphylococcus aureus
In short: as §2

[12] = tested on: E. faecalis VSE 1; experiment: MIC, broth microdilution, vancomycin-sensitive E. faecalis (VSE 1); format: cell-based, Enterococcus faecalis
In short: as §2

[13] = tested on: MRSA; experiment: Minimum bactericidal concentration against MRSA; format: cell-based, Staphylococcus aureus
Method: Plates were incubated overnight at 37°C and colony growth was inspected.

[14] = tested on: E. faecalis VRE 53; experiment: MIC, broth microdilution, vancomycin-resistant E. faecalis VRE 53 (VanA); format: cell-based, Enterococcus faecalis
In short: as §2

[15] = tested on: VE 149 (VanB); experiment: MIC, VanB-type VRE strain VE 149; format: cell-based, Enterococcus; details: Enterococcus; VE 149, VanB; read-out: MIC
Method: as §1

[16] = tested on: 24 clinical MRSA isolates; experiment: MIC against a set of 24 clinical MRSA isolates (range, MIC50, TI); format: cell-based, Staphylococcus aureus
Method: as §1

[17] = tested on: Murine leukemia (L1210) cells; experiment: Cytostatic activity, L1210 cell proliferation; format: cell-based; details: Mus musculus, L1210, 48 h; mean ± SD of three experiments; highest concentration tested 250 µM; 2 days; read-out: Toxicity (IC50) L1210
In short: as §3

[18] = tested on: E. faecalis VRE 37; experiment: MIC, broth microdilution, vancomycin-resistant E. faecalis VRE 37 (VanA); format: cell-based, Enterococcus faecalis
In short: as §2

[19] = tested on: human T-lymphocyte (CEM) cells; experiment: Cytostatic activity, CEM cell proliferation; format: cell-based; details: Homo sapiens, CCRF-CEM, 72 h; mean ± SD of three experiments; highest concentration tested 250 µM; 3 days; read-out: Toxicity (IC50) CEM
In short: as §3

[20] = tested on: MRSA KS2; experiment: MIC, broth microdilution, MRSA KS2; format: cell-based, Staphylococcus aureus
In short: as §2

[21] = tested on: E. faecalis VRE 29; experiment: MIC, broth microdilution, vancomycin-resistant E. faecalis VRE 29 (VanA); format: cell-based, Enterococcus faecalis
In short: as §2

[22] = tested on: E. faecalis VRE 6; experiment: MIC, broth microdilution, vancomycin-resistant E. faecalis VRE 6 (VanA); format: cell-based, Enterococcus faecalis
In short: as §2

[23] = tested on: MRSA KS6; experiment: MIC, broth microdilution, MRSA KS6; format: cell-based, Staphylococcus aureus
In short: as §2

[24] = tested on: S. aureus VSSA (ATCC 6538); experiment: MIC, broth microdilution, vancomycin-sensitive S. aureus (VSSA/MSSA, ATCC 6538); format: cell-based, Staphylococcus aureus
In short: as §2

[25] = tested on: S. aureus VISA/HIP5827; experiment: MIC, broth microdilution, vancomycin-intermediate S. aureus VISA HIP5827; format: cell-based, Staphylococcus aureus
In short: as §2

MIC [1]: 1.56 µM (≈ 0.914 µg/mL)
MIC [2]: 3.13 µM (≈ 1.83 µg/mL)
MIC ([3]; Staphylococcus aureus VRSA, read-out: MIC): 3.13 µM (≈ 1.83 µg/mL)
MIC-fold improvement vs. vancomycin ([3]; VRSA, ratio of MIC of vancomycin and MIC of analogue): 32
IC50 ([4]; average IC50 used for TI in Table S5, >250 entered as 250, read-out: IC50): 14 µM
MIC-fold improvement vs. vancomycin ([5]; MRSA KS1, ratio of MIC of vancomycin and MIC of analogue): 0.5
MIC ([5]; Staphylococcus aureus MRSA KS1, read-out: MIC): 1.56 µM (≈ 0.914 µg/mL)
MIC [6]: 0.78 µM (≈ 0.457 µg/mL)
MIC Range ([7]; 33 clinical VRE isolates): ≤0.02 to 0.78 µM
MIC50 ([7]; Enterococcus, median MIC, 33 clinical VRE isolates, read-out: MIC50): 0.2 µM (≈ 0.117 µg/mL)
MIC [8]: 1.56 µM (≈ 0.914 µg/mL)
MIC [10]: 1.56 µM (≈ 0.914 µg/mL)
MIC-fold improvement vs. vancomycin ([11]; MRSA KS8 (head; KS89 in title), ratio of MIC of vancomycin and MIC of analogue): 0.5
MIC ([11]; Staphylococcus aureus MRSA KS8 (head; KS89 in title), read-out: MIC): 1.56 µM (≈ 0.914 µg/mL)
MIC ([12]; VSE1, Enterococcus faecalis VSE 1 (vancomycin-sensitive), read-out: MIC): 3.13 µM (≈ 1.83 µg/mL)
MIC-fold improvement vs. vancomycin ([12]; VSE 1, ratio of MIC of vancomycin and MIC of analogue): 0.5
MIC ([14]; Enterococcus faecalis VRE 53 (vancomycin-resistant), read-out: MIC): 3.13 µM (≈ 1.83 µg/mL)
MIC-fold improvement vs. vancomycin ([14]; VRE 53, ratio of MIC of vancomycin and MIC of analogue): 128
MIC [15]: 1.56 µM (≈ 0.914 µg/mL)
MIC Range ([16]; 24 clinical MRSA isolates): 0.78 to 6.25 µM
MIC50 ([16]; Staphylococcus aureus, median MIC, 24 clinical MRSA isolates, read-out: MIC50): 1.56 µM (≈ 0.914 µg/mL)
MIC ([18]; Enterococcus faecalis VRE 37 (vancomycin-resistant), read-out: MIC): 3.13 µM (≈ 1.83 µg/mL)
MIC-fold improvement vs. vancomycin ([18]; VRE 37, ratio of MIC of vancomycin and MIC of analogue): 128
MIC-fold improvement vs. vancomycin ([20]; MRSA KS2, ratio of MIC of vancomycin and MIC of analogue): 0.5
MIC ([20]; Staphylococcus aureus MRSA KS2, read-out: MIC): 1.56 µM (≈ 0.914 µg/mL)
MIC ([21]; Enterococcus faecalis VRE 29 (vancomycin-resistant), read-out: MIC): 3.13 µM (≈ 1.83 µg/mL)
MIC-fold improvement vs. vancomycin ([21]; VRE 29, ratio of MIC of vancomycin and MIC of analogue): 128
MIC ([22]; Enterococcus faecalis VRE 6 (vancomycin-resistant), read-out: MIC): 3.13 µM (≈ 1.83 µg/mL)
MIC-fold improvement vs. vancomycin ([22]; VRE 6, ratio of MIC of vancomycin and MIC of analogue): 64
MIC-fold improvement vs. vancomycin ([23]; MRSA KS6, ratio of MIC of vancomycin and MIC of analogue): 0.5
MIC ([23]; Staphylococcus aureus MRSA KS6, read-out: MIC): 1.56 µM (≈ 0.914 µg/mL)
MIC ([24]; ATCC6538, Staphylococcus aureus VSSA, read-out: MIC): 3.13 µM (≈ 1.83 µg/mL)
MIC-fold improvement vs. vancomycin ([24]; VSSA, ratio of MIC of vancomycin and MIC of analogue): 0.3
MIC ([25]; Staphylococcus aureus VISA/HIP5827, read-out: MIC): 3.13 µM (≈ 1.83 µg/mL)
MIC-fold improvement vs. vancomycin ([25]; VISA/HIP5827, ratio of MIC of vancomycin and MIC of analogue): 2
Structure (SMILES): CN(C)c1cc(NC(=O)CNC(C)(C)C)c(O)c2c1C[C@H]1C[C@H]3[C@H](N(C)C)C(O)=C(C(N)=O)C(=O)[C@@]3(O)C(O)=C1C2=O [Tigecycline, reference compound]
IC50 ([4]; average of L1210, CEM and HeLa, read-out: Toxicity (IC50) Average): 14 µM
TI (IC50/MIC50) ([7]; in vitro therapeutic index, VRE): 70
IC50 [9]: 24 ± 17 µM
MBC relative to MIC [13]: more than four times higher than the corresponding MIC
TI (IC50/MIC50) ([16]; in vitro therapeutic index, MRSA): 9
IC50 [17]: 9.4 ± 3.2 µM
IC50 [19]: 7.1 ± 2.1 µM
